Results from US20090246209A1, “GNRH ANALOGUES FOR TREATMENT OF URINARY INCONTINENCE” (priority 2000, published 2009).
Values joined by “and” are separate entries in the source; they are usually repeats but may differ in a detail not shown here. Equal entries are not always repeated. “Also recorded” adds a separate entry of the source.

Tests used:
[1] = system: menopausal person suffering from stress incontinence; assay: 24 hour pad test in a menopausal person with stress incontinence; assay type: in vivo, human; conditions: single dose of 3.75 mg; 2 weeks after treatment; before treatment 10 to 130 ml daily
Procedure: A second menopausal person, suffering from stress incontinence for at least 6 years, was treated with a single dose of 3.75 mg of leuprolide acetate. 24 hour pad tests conducted prior to treatment with the drug indicated they lost between 10 and 130 ml of urine on a daily basis due to their incontinence.

[2] = system: client owned dogs suffering from urinary incontinence; assay: double-blind, placebo-control study of long-acting GnRH analogue in incontinent dogs; assay type: in vivo, dog
Procedure: In a second ongoing study, 16 client owned dogs suffering from urinary incontinence were enrolled in a double-blind, placebo-control study. In the initial phase of the study, dogs were randomly assigned to treatment with a long-acting GnRH analogue (leuprolide acetate) or placebo (dog owners and the investigators were blinded to treatment) along with a short course of therapy with phenylpropanolamine. 5 weeks after treatment with drug or placebo, dogs were evaluated and, if not fully continent, treated with a long-acting GnRH analogue (leuprolide acetate) in an open label phase of the study. To date only 1 of 10 dogs treated with placebo became continent vs. […] treated with drug during the blinded portion of the study. Overall, the results generated thus far indicate […] dogs treated with the long-acting GnRH analogue became continent and […] improved after discontinuation of the short acting phenylpropanolamine. Only 1 dog of 15 treated with the GnRH analogue was considered not to have improved following treatment with the drug.

[3] = system: bitches suffering from urinary incontinence after spaying; assay: GnRH analogue slow release implant in bitches with urinary incontinence after spaying; assay type: in vivo, dog; conditions: for Side effects: dash = none
Procedure: Additionally, for a limited period the dogs were treated with phenylpropanolamine in a dosage of 1.5 mg/kg BW tid orally.
After discontinuation of the shortacting phenylpropanolamine 8 bitches remained continent. Their continence was therefore achieved solely by the treatment with the composition as described in the present invention. Seven out of fifteen dogs seemed to be much happier and in none of the dogs did the general condition deteriorate. […] The respective results are shown in more detail in table 1.

[4] = system: cocker spaniel bitches showing excessive growth of the undercoat due to spaying; assay: coat quality in spayed cocker spaniel bitches with excessive growth of the undercoat; assay type: in vivo, dog; conditions: 5 mg slow release s.c. implant
Procedure: Two cocker spaniel bitches belonging to the same owner were showing excessive growth of the undercoat due to spaying. […] Both dogs were first clinically examined and thereafter a GnRH analogue (Deslorelin) in a dosage of 5 mg, in slow release form, was subcutaneously implanted between the shoulder blades.

[5] = system: perimenopausal person with urge incontinence and hotflushes; assay: treatment of a perimenopausal person with urge incontinence and hotflushes; assay type: in vivo, human; conditions: 3.75 mg; one person
[6] = 11.25 mg slow release s.c. implant, with PPA

With `CCNC(=O)[C@@H]1CCCN1C(=O)[C@H](CCCNC(=N)N)NC(=O)[C@H](CC(C)C)NC(=O)[C@@H](CC(C)C)NC(=O)[C@H](Cc1ccc(O)cc1)NC(=O)[C@H](CO)NC(=O)[C@H](Cc1c[nH]c2ccccc12)NC(=O)[C@H](Cc1c[nH]cn1)NC(=O)[C@@H]1CCC(=O)N1` [Leuprorelinacetate, Leuprolid acetate] the “daily urine loss (pad test)” value [1] was 1 mL, the “dogs that became continent” value ([2]; blinded portion, 5 weeks after treatment, with short course of phenylpropanolamine, placebo 1 of 10) was 3 to 8 dogs and the “dogs considered not to have improved” value ([2]; overall, of 15 dogs treated) was 1 dog. For the same compound, the “dogs that became continent” value ([2]; overall, of 15 dogs treated, after discontinuation of phenylpropanolamine) was 6 dogs, the dogs that improved ([2]; overall, of the remaining dogs, after discontinuation of phenylpropanolamine) was 9 dogs and the “Duration of effect after treatment” value [3, 6] was over 64 days. The Effect on incontinence [3, 6] was 100%, the “Duration of effect after treatment” value ([3]; 11.25 mg slow release s.c. implant, without PPA) was 0 days and the “Duration of effect after treatment” value ([3]; 11.25 mg slow release s.c. implant, without PPA, listed as Leuprorelin acetate) was over 14 days.
With Buserelin acetate [Buserelinacetate] the Side effects ([3]; 6.3 mg slow release s.c. implant) was “agile, more” and the “Duration of effect after treatment” value ([3]; 6.3 mg slow release s.c. implant, without PPA) was 44 days and 83 days.
In the case of Deslorelin acetate [Deslorelinacetate], the Side effects ([3]; 6 mg slow release s.c. implant) is reported as “agile, more; also recorded: More playfull”, the Effect on incontinence ([3]; 6 mg slow release s.c. implant, with PPA (phenylpropanolamine)) is reported as 100% and the Side effects ([3]; 12 mg slow release s.c. implant) is reported as “More self-; also recorded: More tolerant; also recorded: less aggres-”. For the same compound, the Effect on incontinence ([3]; 12 mg slow release s.c. implant, with PPA) was 80% and 100%, the coat quality ([4]; 5 weeks after the injection, both dogs) was “obvious amelioration of the coat quality” and the “signs of baby coat” value ([4]; 21 weeks after injection) was “no signes of “baby coat” were apparent anymore”.
“Triptorelin acetate [Triptorelinacetate]” was tested, and the “period of improvement of both symptoms” value [5] was “about 4 weeks”, the “urge incontinence and hotflushes, reported change” value [5] was “improved considerably” and the Effect on incontinence ([3]; 3.75 mg slow release s.c. implant, 36 kg bitch, dose too low) was “Not effec-”. For the same compound, the “Duration of effect after treatment” value ([3]; 3.75 mg slow release s.c. implant, dose too low) was 0.
